The source of these data is ChEMBL document CHEMBL3244098, “Angiotensin II analogues. 13. Role of the hydroxyl group of position 4 tyrosine in pressor activity” (1979).

For test [1], the target named is T1, Type-1 angiotensin II receptor (Oryctolagus cuniculus) (UniProt P34976).
T1 sequence (whole entry): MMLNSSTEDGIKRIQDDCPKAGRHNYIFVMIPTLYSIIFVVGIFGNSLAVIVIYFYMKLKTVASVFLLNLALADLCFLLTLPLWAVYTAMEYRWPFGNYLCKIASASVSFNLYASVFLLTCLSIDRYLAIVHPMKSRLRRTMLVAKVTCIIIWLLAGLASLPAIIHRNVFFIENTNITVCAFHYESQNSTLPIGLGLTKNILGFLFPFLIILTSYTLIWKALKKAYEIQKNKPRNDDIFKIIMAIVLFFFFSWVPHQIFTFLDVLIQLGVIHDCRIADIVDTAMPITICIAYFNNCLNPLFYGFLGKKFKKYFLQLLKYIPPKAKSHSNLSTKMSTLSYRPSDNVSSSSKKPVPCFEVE
The test can be described thus: Binding affinity to angiotensin 2 receptor in rabbit aorta.

The species entered for test [2] is Rattus norvegicus. The test can be described thus: Pressor activity in nephrectomized, pentolinium treated rat relative to [Asn1,Val5]AII. The class given is functional.

Numbered stars: 1 amine (or outer) side, 2 acyl side, 3 side chain; on linkers, the order of the positions; unused ones are H or OH. Square brackets hold non-standard residues; d marks the D form. Peptide text beside a SMILES is read from it. Phe(4-NO2) = N[C@@H](Cc1ccc([N+](=O)[O-])cc1)C(=O)O; Tyr(3,5-I2) = N[C@@H](Cc1cc(I)c(O)c(I)c1)C(=O)O; X3 = N#[N+]c1ccc(C[C@@H](N[*:1])C(=O)[*:2])cc1; X2 = Nc1c(I)cc(C[C@@H](N[*:1])C(=O)[*:2])cc1I; X4 = Cc1cc(C[C@@H](N[*:1])C(=O)[*:2])cc(C)c1O; X1 = Cc1cc(C[C@H](N[*:1])C(=O)[*:2])cc(C)c1O; Tyr(3-I) = N[C@@H](Cc1ccc(O)c(I)c1)C(=O)O; Phe(4-NH2) = Nc1ccc(C[C@H](N)C(=O)O)cc1; Sar = CNCC(=O)O

For the compound `CNCC(=O)N[C@@H](CCCNC(=N)N)C(=O)N[C@H](C(=O)N[C@H](Cc1cc(I)c(N)c(I)c1)C(=O)N[C@H](C(=O)N[C@@H](Cc1cnc[nH]1)C(=O)N1CCC[C@H]1C(=O)N[C@@H](Cc1ccccc1)C(=O)O)C(C)C)C(C)C` (H-[Sar]RV[X2]VHPF-OH), the Activity in test [1] worked out at 2.7%.
The same measure, in the same setting: for `CNCC(=O)N[C@@H](CCCNC(=N)N)C(=O)N[C@H](C(=O)N[C@H](Cc1ccc(N=[N+]=[N-])cc1)C(=O)N[C@H](C(=O)N[C@@H](Cc1cnc[nH]1)C(=O)N1CCC[C@H]1C(=O)N[C@@H](Cc1ccccc1)C(=O)O)C(C)C)C(C)C` the value was 0.26%; for `CNCC(=O)N[C@@H](CCCNC(=N)N)C(=O)N[C@H](C(=O)N[C@H](Cc1ccc(N)cc1)C(=O)N[C@H](C(=O)N[C@@H](Cc1cnc[nH]1)C(=O)N1CCC[C@H]1C(=O)N[C@@H](Cc1ccccc1)C(=O)O)C(C)C)C(C)C`, 15%; for `CNCC(=O)N[C@@H](CCCNC(=N)N)C(=O)N[C@H](C(=O)N[C@H](Cc1ccc([N+]#N)cc1)C(=O)N[C@H](C(=O)N[C@@H](Cc1cnc[nH]1)C(=O)N1CCC[C@H]1C(=O)N[C@@H](Cc1ccccc1)C(=O)O)C(C)C)C(C)C` (H-[Sar]RV[X3]VHPF-OH), 0.66%.
As to `CC[C@H](C)[C@H](NC(=O)[C@H](Cc1ccc([N+](=O)[O-])cc1)NC(=O)[C@@H](NC(=O)[C@H](CCCNC(=N)N)NC(=O)[C@@H](N)CC(N)=O)C(C)C)C(=O)N[C@@H](Cc1cnc[nH]1)C(=O)N1CCC[C@H]1C(=O)N[C@@H](Cc1ccccc1)C(=O)O` (H-NRV[Phe(4-NO2)]IHPF-OH), the Activity in test [2] was found to be 0.1%.
On the same count and under the same terms, for `CC(C)[C@H](NC(=O)[C@H](CCCNC(=N)N)NC(=O)[C@@H](N)CC(N)=O)C(=O)N[C@@H](Cc1cc(I)c(O)c(I)c1)C(=O)N[C@H](C(=O)N[C@@H](Cc1cnc[nH]1)C(=O)N1CCC[C@H]1C(=O)N[C@@H](Cc1ccccc1)C(=O)O)C(C)C` (H-NRV[Tyr(3,5-I2)]VHPF-OH) the value was 13%; for `CC[C@H](C)[C@H](NC(=O)[C@H](Cc1cc(C)c(O)c(C)c1)NC(=O)[C@@H](NC(=O)[C@H](CCCNC(=N)N)NC(=O)[C@@H](N)CC(N)=O)C(C)C)C(=O)N[C@@H](Cc1cnc[nH]1)C(=O)N1CCC[C@H]1C(=O)N[C@@H](Cc1ccccc1)C(=O)O` (H-NRV[X1]IHPF-OH), 2.2%.
Same read-out and setting: for `CC[C@H](C)[C@H](NC(=O)[C@@H](Cc1cc(C)c(O)c(C)c1)NC(=O)[C@@H](NC(=O)[C@H](CCCNC(=N)N)NC(=O)[C@@H](N)CC(N)=O)C(C)C)C(=O)N[C@@H](Cc1cnc[nH]1)C(=O)N1CCC[C@H]1C(=O)N[C@@H](Cc1ccccc1)C(=O)O` (H-NRV[X4]IHPF-OH) the value was 1.4%; for `CC[C@H](C)[C@H](NC(=O)[C@H](Cc1ccccc1)NC(=O)[C@@H](NC(=O)[C@H](CCCNC(=N)N)NC(=O)[C@@H](N)CC(=O)O)C(C)C)C(=O)N[C@@H](Cc1cnc[nH]1)C(=O)N1CCC[C@H]1C(=O)N[C@@H](Cc1ccccc1)C(=O)O` (H-DRVFIHPF-OH), 10%.
On to `CC[C@H](C)[C@H](NC(=O)[C@H](Cc1ccc(N)cc1)NC(=O)[C@@H](NC(=O)[C@H](CCCNC(=N)N)NC(=O)[C@@H](N)CC(N)=O)C(C)C)C(=O)N[C@@H](Cc1cnc[nH]1)C(=O)N1CCC[C@H]1C(=O)N[C@@H](Cc1ccccc1)C(=O)O` (H-NRV[Phe(4-NH2)]IHPF-OH), for which the Activity in test [2] amounted to 24%.
Still for that read-out and setting: for `CC(C)[C@H](NC(=O)[C@H](CCCNC(=N)N)NC(=O)[C@@H](N)CC(N)=O)C(=O)N[C@@H](Cc1ccc(O)c(I)c1)C(=O)N[C@H](C(=O)N[C@@H](Cc1cnc[nH]1)C(=O)N1CCC[C@H]1C(=O)N[C@@H](Cc1ccccc1)C(=O)O)C(C)C` (H-NRV[Tyr(3-I)]VHPF-OH) the value was 33%.
